Measured values: patent publication US20260355318A1, “MOLECULAR MACHINES FOR TREATMENT OF CANCER, FUNGAL INFECTIONS, OR BACTERIAL INFECTIONS” (priority 2022, published 2026)

Key:
C. albicans [1] = assay: MIC, visible-light-activated MMs and conventional antifungals, C. albicans; assay type: cell-based, Candida albicans (ATCC 18804); settings: for MIC: Candida albicans
Method: C. albicans cell suspensions were incubated with increasing concentrations of MMs and irradiated with 405-nm light at 292 mW cm^−2 for 5 min (87.6 J cm^−2). The minimum inhibitory concentration (MIC) was defined as the MM concentration resulting in no visible fungal growth after irradiation with 87.6 J cm^−2 of 405-nm light.
(§1) Cell suspensions for susceptibility testing (MMs and conventional antifungals) were prepared per the Clinical & Laboratory Standards Institute (CLSI) guidelines (CLSI, 2017; CLSI, 2008). Before testing, yeasts (C. albicans and S. cerevisiae) were sub-cultured in Sabouraud Dextrose Agar-Emmons Modification (SDAE) plates and grown for 24 h at 30 °C. Five independent colonies from 24-h-old plates were collected and diluted to ~10^4 colony forming units (CFU) per mL in sterile saline (CLSI, 2017). Molds (A. fumigatus and the dermatophytes T. rubrum and M. gypseum) were sub-cultured on SDAE medium and incubated for 7 days at 28 °C. Conidia were recovered by covering the plates with sterile distilled water and scraping the colonies. The suspensions were filtered (8-μm pore size) and diluted in saline to ~10^4 CFU mL^−1 (Santos and Hamdan, 2005).
(§2) After a 30-min incubation in the dark, cell suspensions were transferred to small, sterilized glass beakers, which were then placed in a water bath. Each sample was irradiated with 405-nm light at 292 mW cm^−2 for 5 min, corresponding to a light dose of 87.6 J cm^−2, determined using an S415C thermal power sensor (Thorlabs, Newton, MA, USA). During irradiation, the cell suspensions were agitated with a small metal stirrer. A thermocouple probe (model SC-TT-K-30-36-PP; Omega Engineering, Inc., Stanford, CT, USA) was used to monitor the temperature during irradiation. Irradiated cell suspensions were inoculated in 3-(N-morpholino) propanesulfonic acid (MOPS)-buffered Roswell Park Memorial Institute Medium (RPMI) 1640 (pH 7.0). Tubes were incubated at 30 ° C for 48 h (yeasts) and 28 ° C for 7 days (molds). The antifungal or MM concentration resulting in no visible growth was defined as the minimum inhibitory concentration (MIC) (CLSI, 2017; CLSI, 2008). Similarly prepared cell suspensions were used to determine the MIC of conventional antifungals.

S. cerevisiae [2] = assay: MIC, MMs and antifungals, S. cerevisiae; assay type: cell-based, Saccharomyces cerevisiae (ATCC 13007); settings: broth microdilution
Method: as §1, §2

A. fumigatus [3] = assay: MIC, MMs and antifungals, A. fumigatus; assay type: cell-based, Aspergillus fumigatus (ATCC 1022)
Method: as §1
After a 30-min incubation in the dark, cell suspensions were transferred to small, sterilized glass beakers, which were then placed in a water bath. Each sample was irradiated with 405-nm light at 292 mW cm^−2 for 5 min, corresponding to a light dose of 87.6 J cm^−2, determined using an S415C thermal power sensor (Thorlabs, Newton, MA, USA). During irradiation, the cell suspensions were agitated with a small metal stirrer. […]

C. albicans [4] = assay: Time-kill assay, C. albicans; assay type: cell-based, Candida albicans
Method: (§3) For yeasts, five independent colonies were collected from 24-h SDAE plates, inoculated into yeast peptone with 2% dextrose (YPD), and grown for 24 h at 30 °C. Cells were then sub-cultured in fresh medium and grown for ~9 h. Afterward, the cells were centrifuged (5,000 ×g, 5 min), washed, and resuspended in phosphate-buffered saline (PBS) to ~10^6 CFU mL^−1. For A. fumigatus, conidia suspensions (~10^4 CFU mL^−1) were prepared in PBS as previously described.
(§4) Amphotericin B (AMB, 4×MIC) controls were prepared likewise, but light was omitted. Aliquots were collected in 1-min increments for up to 10 min, serially diluted in PBS, and plated on SDAE medium. Plates were incubated at 30 ° C for 48 h with confirmation after 72 h (yeasts) or at 28 ° C for 7 days with confirmation after 14 days (A. fumigatus), after which the CFU number was determined. The results were expressed as the logarithm of base 10 of the ratio between the CFU at each time point and the CFU at time 0. The detection limit of the method was ~1 log10 CFU mL^−1.

[5] = tested on: mature C. albicans biofilms; assay: Biofilm viability (XTT assay); assay type: cell-based, Candida albicans; settings: 2×, 4×MIC, vs DMSO, MMs with 87.6 J cm^−2 405-nm light
Method: The antibiofilm activity of MMs was investigated using 96-well microtiter plates with flat-bottom wells as a closed static biofilm reactor. This setup is reliable, inexpensive, easy to use and obtain, and requires no additional equipment (Pierce et al., 2010). Two parameters were used to evaluate antibiofilm activity: biofilm biomass and biofilm viability. Biofilm biomass was determined using the crystal violet method (Martins et al, 2010), a simple, inexpensive, and readily accessible method for determining biofilm biomass. However, because crystal violet binds both live and dead cells as well as extracellular polymeric substances, it cannot be used alone to reliably assess antibiofilm activity. To overcome this limitation, the XTT assay was used to evaluate biofilm viability (Nett et al., 2011). […] The resulting formazan can be easily detected by measuring the absorbance at 490 nm, which is proportional to the number of living cells, providing a reliable quantitative measurement of metabolically active cells in biofilms (Taff et al., 2012). […]
Biofilm viability was determined using an XTT cell viability assay kit (Biotium, Hayward, CA, USA) per the manufacturer's instructions. […] Normalized absorbance values were obtained by subtracting the background from the signal.

[6] = tested on: mature C. albicans biofilms; assay: Biofilm biomass (crystal violet); assay type: cell-based, Candida albicans; settings: 2×, 4×MIC, vs DMSO, MMs with 87.6 J cm^−2 405-nm light
Method: The antibiofilm activity of MMs was investigated using 96-well microtiter plates with flat-bottom wells as a closed static biofilm reactor. This setup is reliable, inexpensive, easy to use and obtain, and requires no additional equipment (Pierce et al., 2010). Two parameters were used to evaluate antibiofilm activity: biofilm biomass and biofilm viability. Biofilm biomass was determined using the crystal violet method (Martins et al, 2010), a simple, inexpensive, and readily accessible method for determining biofilm biomass. However, because crystal violet binds both live and dead cells as well as extracellular polymeric substances, it cannot be used alone to reliably assess antibiofilm activity. To overcome this limitation, the XTT assay was used to evaluate biofilm viability (Nett et al., 2011). This assay is based on the reduction of the tetrazolium salt XTT to formazan by dehydrogenases in the mitochondrial electron transport chain of living cells. The resulting formazan can be easily detected by measuring the absorbance at 490 nm, which is proportional to the number of living cells, providing a reliable quantitative measurement of metabolically active cells in biofilms (Taff et al., 2012). […]
Biofilm biomass was determined by the crystal violet method, as previously described (Martins et al., 2010). […]

[7] = tested on: C. albicans plasma membrane; assay: Plasma membrane fluidity, DPH fluorescence; assay type: cell-based, Candida albicans
Method: The effects of MMs on C. albicans membrane dynamics were evaluated using DPH fluorescence (Kim et al., 2009). […] AMB-treated cells were used as controls. Samples were fixed with 0.37% formaldehyde and labeled with 0.6 mM DPH, as previously described (Kim et al., 2009). […] DPH fluorescence of untreated samples minus background was defined as 100% and used to calculate changes in treated samples.

[8] = tested on: biofilms of P. aeruginosa and S. aureus; assay: Biofilm total bacterial cell number (acridine orange); assay type: cell-based, Pseudomonas aeruginosa, Staphylococcus aureus; settings: 2×MIC, vs untreated controls
Method: (§5) This combination of methods is effective at evaluating the antibiofilm potential of chemicals (Stiefel et al., 2016). P. aeruginosa and S. aureus were grown overnight in tryptic soy broth (TSB) medium. The overnight cultures were diluted in 1:100 in fresh media and 100 μL aliquots were distributed in a 96-well plate. After 24 h of static growth at 37 ° C, planktonic cells were removed by inverting the plate onto a stack of paper towels, and the biofilm was washed three times with PBS. After washing, MM 1, MM 5, or MM 6 were added at 2×MIC to the biofilm and incubated statically in the dark for 60 min. The biofilm was then irradiated for 15, 30, or 45 min at 146 mW cm2. For the determination of the total bacterial number, acridine orange solution (2% in H2O) diluted 1:100 in Walpole's buffer (27.2 g L-1 sodium acetate trihydrate, adjusted to pH 4 with glacial acetic acid) was added to the wells.

[9] = tested on: biofilms of P. aeruginosa and S. aureus; assay: Biofilm metabolically active cells (ATP); assay type: cell-based, Pseudomonas aeruginosa, Staphylococcus aureus; settings: 2×MIC, antibiotics 45 min, MMs 15 min + light, vs untreated
Method: as §5
For quantification of viable cells in biofilms, following the addition of 100 μL […] of TSB to each well, bacteria were detached from the biofilm by thorough mixing, after which […] of BacTiter-Glo™ reagent, prepared according to the manufacturer's instructions, was added to each well.

S. cerevisiae [10] = assay: Time-kill assay, S. cerevisiae; assay type: cell-based, Saccharomyces cerevisiae; settings: 2×MIC, 405-nm light at 292 mW cm^−2
Method: as §3, §4

A. fumigatus [11] = assay: Time-kill assay, A. fumigatus; assay type: cell-based, Aspergillus fumigatus; settings: 2×MIC, 405-nm light at 292 mW cm^−2
Method: as §3, §4

C. albicans [12] = assay: Development of resistance / cross-resistance in C. albicans (serial passage, single-step); assay type: cell-based; settings: Candida albicans, read-out: MIC of MM in antifungal-resistant C. albicans
Method: FIG. 3: Evaluation of the development of resistance to MMs in C. albicans. For the stepwise resistance assessment by serial passage (left), C. albicans cell suspensions were treated with increasing concentrations (0.3125-160 μM) of different MMs (8 mM stock in DMSO) and then irradiated with […] light (87.6 J cm^−2). The irradiated cell suspensions were then inoculated in MOPS-buffered RPMI 1640 (pH 7.0, Sigma, MO, USA), and the tubes were incubated at 30 ° C for 48 h. […] Cells able to grow at 0.5×MIC of each MM were collected by centrifugation (5,000×g, 5 min), resuspended and re-challenged with a range of MM concentrations and irradiated with 405 nm light (87.6 J cm^−2). The procedure was repeated for a total of 20 consecutive cycles. […] Irradiated cells were then inoculated in YPD and incubated at 30 °C. However, MM-resistant colonies could not be recovered even after 14 days of incubation. Created with Biorender.com.
A modified version of the broth microdilution serial passage method was used to assess the development of resistance to visible-light-activated MMs in C. albicans (Kapoor et al., 2019). C. albicans cell suspensions were prepared and irradiated as previously described for the determination of MM MIC. Cells were then inoculated into buffered RPMI 1640 and incubated at 30 ° C for 48 h. Cells able to grow at 0.5×MIC of MM were centrifuged (5,000×g, 5 min), resuspended, rechallenged with different MM concentrations, and irradiated with 405-nm light (87.6 J cm^−2). The procedure was repeated for 20 consecutive cycles. The antifungals AMB, CAS, and FLC were processed similarly, except that light was omitted, and used as controls.

superoxide dismutase = assay: Superoxide dismutase (SOD) activity; assay type: cell-based, Candida albicans; settings: 0.5×MIC, p<0.05
Method: (§6) Superoxide dismutase (SOD) activity was determined using a Superoxide Dismutase Assay Kit (Caymanchem, MI, USA) per the distributor's instructions. Lipid peroxidation was determined using a TBARS assay kit (TCA method) (Caymanchem, MI, USA) per the distributor's instructions. SOD activity and MDA levels were normalized by protein content determined by the Pierce assay (Pierce™ BCA Protein Assay Kit, Thermo Fisher Scientific, MA, USA).

C. albicans [13] = assay: Lipid peroxidation (TBARS, MDA); assay type: cell-based, Candida albicans; settings: 2×MIC
Method: as §6

[14] = Estimated rotation rate after light activation; settings: based on known motors with similar core skeletons

C[C@@H]1[C@H](O)[C@@H](C)/C=C/C=C/C=C/C=C/C=C/C=C/C=C/[C@H](O[C@@H]2O[C@H](C)[C@@H](O)[C@H](N)[C@@H]2O)C[C@@H]2O[C@](O)(C[C@@H](O)C[C@@H](O)[C@H](O)CC[C@@H](O)C[C@@H](O)CC(=O)O[C@H]1C)C[C@H](O)[C@H]2C(=O)O [Amphotericin B (AMB), Amphotericin B]
MIC of antifungal agent (C. albicans [1]; C. albicans, broth microdilution): 1 µg/mL
MIC of antifungal agent (S. cerevisiae [2]): 0.5 µg/mL
MIC of antifungal agent (A. fumigatus [3]; A. fumigatus, broth microdilution): 2 µg/mL
effect on fungal cell number (C. albicans [4]; time-kill, FIG. 1D / FIG. 2, AMB at 4×MIC): non-significant reduction in cell numbers
reduction of biofilm viability [5]: 20%
reduction of biofilm biomass [6]: 6%
DPH fluorescence [7]: reduces DPH fluorescence

C[C@@H](c1ncncc1F)[C@](O)(Cn1cncn1)c1ccc(F)cc1F [Voriconazole (VRC), Voriconazole]
MIC (C. albicans [1]; read-out: MIC of antifungal agent): 0.03 µg/mL
MIC (S. cerevisiae [2]; Saccharomyces cerevisiae, read-out: MIC of antifungal agent): 0.125 µg/mL
MIC (A. fumigatus [3]; Aspergillus fumigatus, read-out: MIC of antifungal agent): 0.5 µg/mL

CO[C@H]1/C=C/O[C@@]2(C)Oc3c(C)c(O)c4c(O)c(c(/C=N/N5CCN(C)CC5)c(O)c4c3C2=O)NC(=O)/C(C)=C\C=C\[C@H](C)[C@H](O)[C@@H](C)[C@@H](O)[C@@H](C)[C@H](OC(C)=O)[C@@H]1C [rifampin]
reduction in total bacterial cell number in biofilm [8]: ≤ 64%
reduction in metabolically active cells in biofilm [9]: 18%

C[C@@H]1Cc2ccc3ccccc3c2/C1=C1\c2ccccc2Sc2cc(NCCN3CCNCC3)ccc21 (mixture of isomers) [MM 7, 9-(2-methyl-2,3-dihydro-1H-cyclopenta[a]naphthalen-1-ylidene)-N-(2-(piperazin-1-yl)ethyl)-9H-thioxanthen-3-amine]
MIC (C. albicans [1]; read-out: MIC of MM): ≤ 5 µM
time to reduce cell numbers to limit of detection (C. albicans [4]; C. albicans, 2×MIC, 405-nm light at 292 mW cm^−2): 9 min
time to population eradication (S. cerevisiae [10]): 5 min
time to reduce cell numbers to limit of detection (A. fumigatus [11]): 9 min
MIC (C. albicans [12]): 5 µM
superoxide dismutase activity (superoxide dismutase): increased superoxide dismutase activity
lipid peroxidation product levels (C. albicans [13]): increased levels of the lipid peroxidation product malonaldehyde
estimated rotation rate after light activation [14]: 3 MHz
